From article PMC11189555, “Aryl amino acetamides prevent Plasmodium falciparum ring development via targeting the lipid-transfer protein PfSTART1” (Nature Communications, 2024)
Values joined by “and” are separate entries in the source; they are usually repeats but may differ in a detail not shown here. Equal entries are not always repeated. Where two headings read alike, the source gives them in different places.

Test system: SLI-N330K parasites
Experiment: Growth inhibition assay (72 h, LDH activity)
Type: cell-based, Plasmodium falciparum
Conditions: for Growth inhibition, (1 - av / DMSO) x 100: Fig 2B source data, per biological replicate; for EC50: Plasmodium falciparum
Method: Parasite growth assays with inhibitory compounds were performed as per[11] and are fully described in the Supplementary Information.
Molecular biology and transfection of P. falciparum: Selection Linked Integration […]
To introduce the PfSTART1 mutations, the second half of the coding sequence of pfstart1 (PF3D7_0104200), was recodonised without introns to the bias of Saccharomyces cerevisiae containing either WT, N309K or N330K mutations, and synthesised as gBlock fragments (Integrated DNA Technologies). The first 819 bp of the 5′ native sequence of pfstart1 was amplified from gDNA, to form the 5’ homology block (5’ HB). The 3′ recodonised gBlock fragment comprising of the last 552 bp of either the WT, N309K or N330K pfstart1 to form the ‘recodon’ block (primers listed in Table S2). The 5’ HB and recodon products were sewn together by overlapping PCR to reconstitute the full coding sequence of pfstart1. These blocks (WT/N309K/N330K) were digested with BglII/PstI, and inserted into the parasite vector p-HA-2A-Neo-glmS
1. This plasmid contains an in -frame haemagglutinin (HA) epitope for protein identification and a P2A peptide (2A) to skip continuous peptide bond synthesis of a downstream neomycin resistance gene ( NeoR).
Parasites containing the transfected DNA were selected using 2.5 nM WR99210 (Jacobus). To select for parasites in which single crossover integration had occurred into the pfstart1 locus, parasites were treated with 400 μg/mL G418 (geniticin, Sigma Aldrich) for 14 days: only parasites that have integrated the construct into their genome expressed the neomycin resistance gene together with the PfSTART1 protein.
Parasite lines were cloned using limiting dilution. These clones were then tested on Western Blot (for correct HA-tagging and protein size), and correct integration and sequence were tested by PCR analysis: PCR on the gDNA was conducted using the primers START_5’UTR.F and START_Seq.R (Table S2). […]
Growth inhibition assays. Synchronised ring-stage parasites (0.3-0.6% parasitemia, 2% haematocrit) were grown for 72 h in a serial-dilution of the compound under […]
and compound 4. Note that M-833 was first purchased from MolPort (MolPort -002-267-916) then made in-house at WEHI: the differences observed in EC50s across experiments are attributed to the different batches of M -833. For some experiments, 0, 0.25 or 2.5 mM of glucosamine (GlcN) was also added. Experiments were set up in technical duplicates or triplicates. Following a freeze -thaw cycle, lactate dehydrogenase (LDH) activity was assessed as an indicator of parasite growt h 5. 30 μL of parasite culture was incubated for 30 min in the dark with 75 μL Malstat mixture (0.1 M Tris pH 9.0, 20 g/L lactic acid, pH 7.5, 0.2% Triton-X100, 0.5 g/L acetylpyridine adenine dinucleotide (APAD, Sigma), 200 μg/mL nitroblue tetrazolium (NBT; Sigma), 1 μg/mL phenozine ethosulfate (PES; Sigma)). Absorbance was then measured at 650 nm, transformed using the formula below, plotted against the logarithm of the concentrations, and a non-linear regression (log(inhibitor) vs. response, variable slope) was calculated using GraphPad Prism to assess the half-inhibitory […]
Growth inhibition % = (1 − average(sample)− average(uRBC)) ∗ 100 […]
The DMSO samples were also used to assess growth of parasite in the presence of 0.25 and 2.5 mM GlcN (normalised by DMSO in 0 mM GlcN).
Egress, invasion & recovery assay. To measure egress, invasion and follow up recovery in the presence of different compounds, we adapted the method developed in6, using Hyp1-Nluc parasites7. These parasites episomally express the exported PEXEL protein Hyp1 (PF3D7_0113300) tagged with a NanoLuc luciferase (NLuc) and were selected with 2.5 nM WR99210 (Jacobus). Highly synchronised schizonts were obtained using ML10 (LifeArc) and sorbitol synchronisation, and Percoll-purified (the culture was gently layered over 67% Percoll (Cytiva) in RPMI, and centrifuged for 15 min at 1500 g and the schizont layer was collected and washed). […]

## Cc1cc(Cl)c(S(=O)(=O)N2CCCC2)cc1OCC(=O)NC1CCCCC1 [M-833]
0.123457 uM M-833, START(N330K), 0.25 mM GlcN, biological replicate 4
  sample/DMSO: -2.981
0.123457 uM M-833, START(N330K), 2.5 mM GlcN, biological replicate 1
  sample/DMSO: 25.4075
0.123457 uM M-833, START(N330K), 2.5 mM GlcN, biological replicate 2
  sample/DMSO: 9.59
0.123457 uM M-833, START(N330K), 2.5 mM GlcN, biological replicate 3
  sample/DMSO: 1.226
0.123457 uM M-833, START(N330K), 2.5 mM GlcN, biological replicate 4
  sample/DMSO: -0.1405
0.37037 uM M-833, START(N330K), 0 mM GlcN, biological replicate 1
  sample/DMSO: 19.3431
0.37037 uM M-833, START(N330K), 0 mM GlcN, biological replicate 2
  sample/DMSO: 2.274
0.37037 uM M-833, START(N330K), 0 mM GlcN, biological replicate 3
  sample/DMSO: 7.66
0.37037 uM M-833, START(N330K), 0 mM GlcN, biological replicate 4
  sample/DMSO: -3.175
0.37037 uM M-833, START(N330K), 0.25 mM GlcN, biological replicate 1
  sample/DMSO: 19.0968
0.37037 uM M-833, START(N330K), 0.25 mM GlcN, biological replicate 2
  sample/DMSO: 15.8158
0.37037 uM M-833, START(N330K), 0.25 mM GlcN, biological replicate 3
  sample/DMSO: 6.853
0.37037 uM M-833, START(N330K), 0.25 mM GlcN, biological replicate 4
  sample/DMSO: -2.547
0.37037 uM M-833, START(N330K), 2.5 mM GlcN, biological replicate 1
  sample/DMSO: 28.3178
0.37037 uM M-833, START(N330K), 2.5 mM GlcN, biological replicate 2
  sample/DMSO: 11.3273
0.37037 uM M-833, START(N330K), 2.5 mM GlcN, biological replicate 3
  sample/DMSO: 5.76
0.37037 uM M-833, START(N330K), 2.5 mM GlcN, biological replicate 4
  sample/DMSO: 6.979
1.11111 uM M-833, START(N330K), 0 mM GlcN, biological replicate 1
  sample/DMSO: 22.4532
1.11111 uM M-833, START(N330K), 0 mM GlcN, biological replicate 2
  sample/DMSO: 7.959
1.11111 uM M-833, START(N330K), 0 mM GlcN, biological replicate 3
  sample/DMSO: 16.7199
1.11111 uM M-833, START(N330K), 0 mM GlcN, biological replicate 4
  sample/DMSO: 4.969
1.11111 uM M-833, START(N330K), 0.25 mM GlcN, biological replicate 1
  sample/DMSO: 24.0145
1.11111 uM M-833, START(N330K), 0.25 mM GlcN, biological replicate 2
  sample/DMSO: 17.1338
1.11111 uM M-833, START(N330K), 0.25 mM GlcN, biological replicate 3
  sample/DMSO: 18.125
1.11111 uM M-833, START(N330K), 0.25 mM GlcN, biological replicate 4
  sample/DMSO: 8.022
1.11111 uM M-833, START(N330K), 2.5 mM GlcN, biological replicate 1
  sample/DMSO: 36.9907
1.11111 uM M-833, START(N330K), 2.5 mM GlcN, biological replicate 2
  sample/DMSO: 15.1494
1.11111 uM M-833, START(N330K), 2.5 mM GlcN, biological replicate 3
  sample/DMSO: 17.4656
1.11111 uM M-833, START(N330K), 2.5 mM GlcN, biological replicate 4
  sample/DMSO: 7.728
SLI-N330K, M-833 conc 0.00304832 (unit not given)
  Growth inhibition, (1 - av / DMSO) x 100: -17.2829% and -4.43% and -6.85%
SLI-N330K, M-833 conc 0.00914495 (unit not given)
  Growth inhibition, (1 - av / DMSO) x 100: -20.2465% and -6.679% and -8.021%
SLI-N330K, M-833 conc 0.0274348 (unit not given)
  Growth inhibition, (1 - av / DMSO) x 100: -22.4472% and -9.048% and -10.9244%
SLI-N330K, M-833 conc 0.0823045 (unit not given)
  Growth inhibition, (1 - av / DMSO) x 100: -27.3474% and -6.202% and -4.991%
SLI-N330K, M-833 conc 0.246914 (unit not given)
  Growth inhibition, (1 - av / DMSO) x 100: -20.5399% and -4.464% and 0.9677%
SLI-N330K, M-833 conc 0.740741 (unit not given)
  Growth inhibition, (1 - av / DMSO) x 100: -11.4437% and -0.9712% and 2.699%
SLI-N330K, M-833 conc 2.22222 (unit not given)
  Growth inhibition, (1 - av / DMSO) x 100: 10.9155% and 8.4% and 12.8088%
SLI-N330K, M-833 conc 6.66667 (unit not given)
  Growth inhibition, (1 - av / DMSO) x 100: 48.6796% and 44.0109% and 38.2735%
SLI-N330K, M-833 conc 20 (unit not given)
  Growth inhibition, (1 - av / DMSO) x 100: 69.4542% and 76.7081% and 72.5236%
M-833 3.33333 uM, START(N330K), 0 mM GlcN, biological replicates 1-4
  sample/DMSO: 23.2009 and 27.766 and 32.1009 and 22.2063
M-833 3.33333 uM, START(N330K), 0.25 mM GlcN, biological replicates 1-4
  sample/DMSO: 36.1845 and 29.2292 and 28.75 and 22.2222
M-833 3.33333 uM, START(N330K), 2.5 mM GlcN, biological replicates 1-4
  sample/DMSO: 45.6636 and 29.3607 and 33.6678 and 26.3232
M-833 10 uM, START(N330K), 0 mM GlcN, biological replicates 1-4
  sample/DMSO: 60.4059 and 63.1206 and 59.1558 and 63.3004
M-833 10 uM, START(N330K), 0.25 mM GlcN, biological replicates 1-4
  sample/DMSO: 65.2315 and 63.5636 and 70.0446 and 58.3469
M-833 10 uM, START(N330K), 2.5 mM GlcN, biological replicates 1-4
  sample/DMSO: 68.4226 and 62.1265 and 64.6971 and 47.1194
Fig 2B, SLI-N330K, 72 h, n = 3, unit only in x-axis title, read-out: EC50 (95% confidence interval)
  EC50: 6.27 µM
Fig 3C, SLI-N330K, 2.5 mM GlcN, n = 4, unit on plot axis, read-out: EC50 M-833 (95% confidence interval)
  EC50: > 3 µM
SLI-N330K, Fig 2B
  fold more resistant than the 3D7 parental parasites: 64 fold
